# Source: the supplement of paper PMC12463676, “Small-molecule dissolution of stress granules by redox modulation benefits ALS models” (Nature Chemical Biology, 2025)
# Compound: NC(=O)CCCCC1CCSS1 [lipoamide]
# Assay: thermal stability z-score vs DMSO; higher = more thermally stabilized by treatment
# Details: HeLa; lipoamide concentration 100 µM; arsenate co-treatment: none
# Procedure: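 Cellular thermal proteome profiling in HeLa cells. Cells were treated with 100 µM lipoamide for 1 h, with or without 1 mM arsenate for a further 1 h, then heated to ten temperatures (37-66.3 °C), and soluble protein was quantified by TMT mass spectrometry relative to 0.1% DMSO controls. The thermal stability score (sum of log2 fold changes minus the abundance score) was transformed to a z-score; mean of n = 3 experiments.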
# 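Further: each temperature applied for 3 min, abundance score taken as mean log2 fold change at the two lowest temperatures, z-score obtained by mean subtraction and division by SD.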
# Sequence of UniProt Q7LBC6 (Q7LBC6 whole entry): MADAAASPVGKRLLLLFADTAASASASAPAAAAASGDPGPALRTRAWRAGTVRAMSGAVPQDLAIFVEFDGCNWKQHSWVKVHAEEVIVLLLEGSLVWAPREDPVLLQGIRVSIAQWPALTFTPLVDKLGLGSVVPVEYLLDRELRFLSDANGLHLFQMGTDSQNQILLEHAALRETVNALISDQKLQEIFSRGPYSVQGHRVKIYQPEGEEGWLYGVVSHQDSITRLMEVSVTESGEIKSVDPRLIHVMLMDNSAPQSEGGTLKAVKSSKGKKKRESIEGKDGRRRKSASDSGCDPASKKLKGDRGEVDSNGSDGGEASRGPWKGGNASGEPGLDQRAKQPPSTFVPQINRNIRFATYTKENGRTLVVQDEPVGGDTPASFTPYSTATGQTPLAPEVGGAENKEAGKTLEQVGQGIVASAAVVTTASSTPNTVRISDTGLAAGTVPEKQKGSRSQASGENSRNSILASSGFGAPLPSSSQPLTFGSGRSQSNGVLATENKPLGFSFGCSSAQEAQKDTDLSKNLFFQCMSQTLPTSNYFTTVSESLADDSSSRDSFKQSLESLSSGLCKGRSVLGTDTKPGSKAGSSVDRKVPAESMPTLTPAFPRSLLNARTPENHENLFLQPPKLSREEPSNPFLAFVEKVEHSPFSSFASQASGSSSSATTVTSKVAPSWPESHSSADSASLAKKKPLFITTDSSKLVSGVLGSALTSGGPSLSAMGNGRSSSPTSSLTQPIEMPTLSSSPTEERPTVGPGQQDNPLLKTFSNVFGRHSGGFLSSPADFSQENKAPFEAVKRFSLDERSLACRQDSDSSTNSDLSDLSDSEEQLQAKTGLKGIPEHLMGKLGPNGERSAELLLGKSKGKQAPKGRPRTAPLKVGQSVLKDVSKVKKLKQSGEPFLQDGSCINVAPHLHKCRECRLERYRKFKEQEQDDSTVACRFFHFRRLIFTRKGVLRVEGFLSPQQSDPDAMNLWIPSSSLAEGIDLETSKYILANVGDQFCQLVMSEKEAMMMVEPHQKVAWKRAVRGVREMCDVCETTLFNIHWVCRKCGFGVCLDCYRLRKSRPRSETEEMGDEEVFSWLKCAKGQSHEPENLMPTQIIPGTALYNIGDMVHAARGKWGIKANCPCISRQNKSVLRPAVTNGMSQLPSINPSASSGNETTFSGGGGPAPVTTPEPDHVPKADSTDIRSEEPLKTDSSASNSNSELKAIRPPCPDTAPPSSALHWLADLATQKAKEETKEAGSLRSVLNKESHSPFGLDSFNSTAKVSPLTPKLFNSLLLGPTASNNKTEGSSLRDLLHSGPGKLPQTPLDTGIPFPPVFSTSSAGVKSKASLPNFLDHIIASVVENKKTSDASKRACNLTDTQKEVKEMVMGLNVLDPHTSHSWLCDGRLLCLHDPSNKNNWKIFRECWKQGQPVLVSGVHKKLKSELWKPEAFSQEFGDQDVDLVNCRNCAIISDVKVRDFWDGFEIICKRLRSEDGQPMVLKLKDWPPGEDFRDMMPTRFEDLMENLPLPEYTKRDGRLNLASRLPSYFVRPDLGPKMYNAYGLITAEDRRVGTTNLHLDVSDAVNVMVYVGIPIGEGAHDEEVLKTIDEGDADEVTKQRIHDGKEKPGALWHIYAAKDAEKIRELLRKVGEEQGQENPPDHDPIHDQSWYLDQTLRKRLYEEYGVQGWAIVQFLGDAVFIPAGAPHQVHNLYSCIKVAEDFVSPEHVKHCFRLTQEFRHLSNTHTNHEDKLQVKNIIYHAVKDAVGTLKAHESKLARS
# Sequence of UniProt P16035 (P16035 whole entry): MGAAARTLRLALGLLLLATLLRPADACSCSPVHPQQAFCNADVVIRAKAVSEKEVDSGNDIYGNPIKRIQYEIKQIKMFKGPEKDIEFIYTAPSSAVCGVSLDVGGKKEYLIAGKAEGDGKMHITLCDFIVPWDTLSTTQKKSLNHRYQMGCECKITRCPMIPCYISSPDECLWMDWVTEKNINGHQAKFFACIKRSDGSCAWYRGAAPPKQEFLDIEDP
# Sequence of UniProt Q9H2G9 (Q9H2G9 whole entry): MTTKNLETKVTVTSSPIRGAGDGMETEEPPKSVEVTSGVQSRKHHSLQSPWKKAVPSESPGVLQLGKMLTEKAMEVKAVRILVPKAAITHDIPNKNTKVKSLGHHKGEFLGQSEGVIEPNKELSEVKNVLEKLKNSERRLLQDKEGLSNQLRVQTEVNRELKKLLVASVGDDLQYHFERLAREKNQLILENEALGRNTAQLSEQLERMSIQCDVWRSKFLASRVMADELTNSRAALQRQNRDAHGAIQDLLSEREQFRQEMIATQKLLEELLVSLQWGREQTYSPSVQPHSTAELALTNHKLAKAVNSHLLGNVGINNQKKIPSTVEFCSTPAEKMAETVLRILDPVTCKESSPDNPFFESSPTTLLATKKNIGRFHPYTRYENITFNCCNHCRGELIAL
# Sequence of UniProt Q8NDH3 (Q8NDH3 whole entry): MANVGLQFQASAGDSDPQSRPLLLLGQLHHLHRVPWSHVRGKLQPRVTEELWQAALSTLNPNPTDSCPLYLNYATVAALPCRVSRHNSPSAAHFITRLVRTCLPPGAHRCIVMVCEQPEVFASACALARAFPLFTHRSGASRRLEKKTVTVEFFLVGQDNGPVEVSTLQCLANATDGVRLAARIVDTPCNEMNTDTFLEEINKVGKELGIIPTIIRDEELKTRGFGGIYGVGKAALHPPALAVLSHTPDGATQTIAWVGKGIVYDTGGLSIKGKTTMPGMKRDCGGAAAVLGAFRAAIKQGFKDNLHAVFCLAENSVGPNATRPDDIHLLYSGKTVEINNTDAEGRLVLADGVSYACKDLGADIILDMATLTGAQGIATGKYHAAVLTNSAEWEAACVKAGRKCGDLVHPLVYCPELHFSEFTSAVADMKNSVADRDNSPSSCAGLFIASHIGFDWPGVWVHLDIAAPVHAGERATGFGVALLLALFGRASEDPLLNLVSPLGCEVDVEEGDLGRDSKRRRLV
# Sequence of UniProt O14867 (O14867 whole entry): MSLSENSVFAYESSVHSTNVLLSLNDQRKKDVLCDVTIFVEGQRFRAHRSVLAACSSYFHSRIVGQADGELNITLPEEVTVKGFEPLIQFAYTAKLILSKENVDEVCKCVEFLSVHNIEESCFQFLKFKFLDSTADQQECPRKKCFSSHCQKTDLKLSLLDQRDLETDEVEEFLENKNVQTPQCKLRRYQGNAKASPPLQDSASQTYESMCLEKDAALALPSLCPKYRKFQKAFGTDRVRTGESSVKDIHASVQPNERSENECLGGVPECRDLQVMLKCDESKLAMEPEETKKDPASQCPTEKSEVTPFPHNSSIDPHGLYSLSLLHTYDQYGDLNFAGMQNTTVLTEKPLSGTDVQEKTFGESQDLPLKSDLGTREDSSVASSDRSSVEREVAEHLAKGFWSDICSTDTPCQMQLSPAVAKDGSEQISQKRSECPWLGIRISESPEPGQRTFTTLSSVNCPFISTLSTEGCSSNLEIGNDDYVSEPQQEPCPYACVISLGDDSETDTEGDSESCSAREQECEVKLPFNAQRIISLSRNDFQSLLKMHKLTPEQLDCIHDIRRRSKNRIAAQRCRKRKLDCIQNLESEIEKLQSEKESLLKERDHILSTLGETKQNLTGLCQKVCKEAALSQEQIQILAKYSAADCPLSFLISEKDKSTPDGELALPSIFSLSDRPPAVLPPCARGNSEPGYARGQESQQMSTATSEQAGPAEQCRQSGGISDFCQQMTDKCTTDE
# Sequence of UniProt P54578 (P54578 whole entry): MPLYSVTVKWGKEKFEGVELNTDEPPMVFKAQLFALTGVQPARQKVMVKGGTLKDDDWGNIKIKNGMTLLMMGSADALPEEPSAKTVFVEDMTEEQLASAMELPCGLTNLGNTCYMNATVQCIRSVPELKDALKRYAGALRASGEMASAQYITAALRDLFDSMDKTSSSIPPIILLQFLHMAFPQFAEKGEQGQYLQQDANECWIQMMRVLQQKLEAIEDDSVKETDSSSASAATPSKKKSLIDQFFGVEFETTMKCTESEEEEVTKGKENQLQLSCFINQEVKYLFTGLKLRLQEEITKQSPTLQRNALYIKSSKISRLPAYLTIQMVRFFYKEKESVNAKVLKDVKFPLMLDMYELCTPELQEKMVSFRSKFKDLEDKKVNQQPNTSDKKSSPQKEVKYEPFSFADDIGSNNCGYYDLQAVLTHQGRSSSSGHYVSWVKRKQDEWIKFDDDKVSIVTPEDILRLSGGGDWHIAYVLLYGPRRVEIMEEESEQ
# Sequence of UniProt Q8NEM2 (Q8NEM2 whole entry): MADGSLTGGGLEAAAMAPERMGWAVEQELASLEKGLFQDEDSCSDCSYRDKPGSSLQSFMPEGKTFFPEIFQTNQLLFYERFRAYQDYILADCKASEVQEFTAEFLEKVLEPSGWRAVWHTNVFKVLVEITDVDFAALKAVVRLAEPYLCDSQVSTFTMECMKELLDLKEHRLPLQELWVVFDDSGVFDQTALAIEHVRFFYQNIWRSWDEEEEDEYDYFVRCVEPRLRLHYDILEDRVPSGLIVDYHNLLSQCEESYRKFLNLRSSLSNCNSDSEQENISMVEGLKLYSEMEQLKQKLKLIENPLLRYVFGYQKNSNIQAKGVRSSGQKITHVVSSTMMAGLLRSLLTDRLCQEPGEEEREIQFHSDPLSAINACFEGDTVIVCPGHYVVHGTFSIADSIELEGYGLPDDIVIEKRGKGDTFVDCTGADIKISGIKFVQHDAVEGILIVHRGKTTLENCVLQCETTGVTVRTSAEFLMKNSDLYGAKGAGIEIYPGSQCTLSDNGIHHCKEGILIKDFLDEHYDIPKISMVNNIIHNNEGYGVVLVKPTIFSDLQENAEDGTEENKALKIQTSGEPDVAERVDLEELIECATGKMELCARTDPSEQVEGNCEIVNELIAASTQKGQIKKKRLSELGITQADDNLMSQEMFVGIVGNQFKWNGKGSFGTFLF
# Sequence of UniProt Q00765 (Q00765 whole entry): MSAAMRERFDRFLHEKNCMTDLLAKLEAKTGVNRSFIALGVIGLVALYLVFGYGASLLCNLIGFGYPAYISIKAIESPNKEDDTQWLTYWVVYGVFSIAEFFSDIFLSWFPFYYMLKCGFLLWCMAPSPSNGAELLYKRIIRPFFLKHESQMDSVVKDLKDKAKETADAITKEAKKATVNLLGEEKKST
row,Target,thermal stability z-score
1,ATG9A (UniProt Q7Z3C6),-0.339
2,BACH1 (UniProt O14867),-0.333
3,NDUFA4 (UniProt O00483),0.887
4,STRBP (UniProt Q96SI9),0.71
5,PAK4 (UniProt O96013),-0.347
6,IGBP1 (UniProt P78318),0.441
7,KDM3B (UniProt Q7LBC6),-0.0129
8,TIMP2 (UniProt P16035),-0.411
9,IGSF8 (UniProt Q969P0),0.326
10,PRMT9 (UniProt Q6P2P2),0.0769
11,NEK6 (UniProt Q9HC98),-0.266
12,SNX3 (UniProt O60493),-0.231
13,USP14 (UniProt P54578),-0.143
14,TSSC4 (UniProt Q9Y5U2),0.668
15,SLC25A32 (UniProt Q9H2D1),-1.17
16,AKAP8 (UniProt O43823),-0.426
17,HDLBP (UniProt Q00341),0.231
18,CALCOCO1 (UniProt Q9P1Z2),0.0847

row,Target,thermal stability z-score
1,MORF4L1 (UniProt Q9UBU8),0.0693
2,SUMF1 (UniProt Q8NBK3),-0.419
3,CSTB (UniProt P04080),0.0839
4,SHCBP1 (UniProt Q8NEM2),0.0645
5,UFSP2 (UniProt Q9NUQ7),-0.381
6,AMMECR1 (UniProt Q9Y4X0),-0.0642
7,NF2 (UniProt P35240),0.235
8,PEX5 (UniProt P50542),-0.706
9,REEP5 (UniProt Q00765),1
10,BLZF1 (UniProt Q9H2G9),0.122
11,NPEPL1 (UniProt Q8NDH3),-0.808
12,PREX1 (UniProt Q8TCU6),0.0645
13,FBXO21 (UniProt O94952),-1.07
14,MRPL42 (UniProt Q9Y6G3),-0.921
15,FEN1 (UniProt P39748),0.469
16,SAMD9 (UniProt Q5K651),-0.0624
17,AP1G1 (UniProt O43747),-0.404
18,PAFAH1B1 (UniProt P43034),-0.161

# Compound: O=[As]([O-])(O)O.[K+] [potassium arsenate]
# Assay: as above
# Details: HeLa; arsenate concentration 1 mM
# Procedure: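 Cellular thermal proteome profiling in HeLa cells treated with 1 mM arsenate for 1 h (DMSO pretreatment), heated to ten temperatures (37-66.3 °C). Soluble protein was quantified by TMT mass spectrometry relative to DMSO controls; the thermal stability score was transformed to a z-score; mean of n = 3 experiments.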
row,Target,thermal stability z-score
1,ALDH3B1 (UniProt P43353),1.26
2,FASTKD1 (UniProt Q53R41),-0.324
3,SNRPD3 (UniProt P62318),0.399
4,TBCK (UniProt Q8TEA7),-0.192
5,PHLDB1 (UniProt Q86UU1),0.2
6,NLRX1 (UniProt Q86UT6),-0.0617
7,NAT10 (UniProt Q9H0A0),-0.812
8,CCDC91 (UniProt Q7Z6B0),1.21
9,ZWINT (UniProt O95229),0.0525
10,FAHD2A (UniProt Q96GK7),-0.0563
11,UBE2I (UniProt P63279),0.137
12,GPRC5A (UniProt Q8NFJ5),0.816
13,AP4E1 (UniProt Q9UPM8),-0.068
14,TMEM56 (UniProt Q96MV1),0.953
15,HADHA (UniProt P40939),-0.331
16,TP53I3 (UniProt Q53FA7),-0.359
17,WDR47 (UniProt O94967),-0.0616
18,EVL (UniProt Q9UI08),-0.462
19,SYDE1 (UniProt Q6ZW31),-0.278
20,LYPLA1 (UniProt O75608),-0.862
21,ACAP2 (UniProt Q15057),-0.178
22,BRAP (UniProt Q7Z569),0.485
23,NRBF2 (UniProt Q96F24),-0.0833
24,TMEM59 (UniProt Q9BXS4),-0.0618

row,Target,thermal stability z-score
1,AVL9 (UniProt Q8NBF6),0.203
2,SLC20A1 (UniProt Q8WUM9),-0.23
3,NUMA1 (UniProt Q14980),-1.48
4,TXNDC12 (UniProt O95881),0.744
5,R3HCC1 (UniProt Q9Y3T6),-0.101
6,COPS2 (UniProt P61201),0.0289
7,PSMB3 (UniProt P49720),0.157
8,SCRN2 (UniProt Q96FV2),-0.185
9,PPP1R18 (UniProt Q6NYC8),0.444
10,GNL2 (UniProt Q13823),-1.8
11,ADCK1 (UniProt Q86TW2),-0.00585
12,ATG9A (UniProt Q7Z3C6),0.359
13,BACH1 (UniProt O14867),0.169
14,NDUFA4 (UniProt O00483),0.532
15,STRBP (UniProt Q96SI9),0.571
16,PAK4 (UniProt O96013),-0.347
17,IGBP1 (UniProt P78318),-0.613
18,KDM3B (UniProt Q7LBC6),0.0976
19,TIMP2 (UniProt P16035),0.923
20,IGSF8 (UniProt Q969P0),0.893
21,PRMT9 (UniProt Q6P2P2),0.171
22,NEK6 (UniProt Q9HC98),-0.209
23,SNX3 (UniProt O60493),0.0169
24,USP14 (UniProt P54578),-0.0718

row,Target,thermal stability z-score
1,TSSC4 (UniProt Q9Y5U2),-0.46
2,SLC25A32 (UniProt Q9H2D1),-0.601
3,AKAP8 (UniProt O43823),-0.946
4,HDLBP (UniProt Q00341),-0.295
5,CALCOCO1 (UniProt Q9P1Z2),0.0728
6,MORF4L1 (UniProt Q9UBU8),0.343
7,SUMF1 (UniProt Q8NBK3),-0.194
8,CSTB (UniProt P04080),0.59
9,SHCBP1 (UniProt Q8NEM2),-0.451
10,UFSP2 (UniProt Q9NUQ7),0.0966
11,AMMECR1 (UniProt Q9Y4X0),-0.217
12,NF2 (UniProt P35240),-0.309
13,PEX5 (UniProt P50542),0.137
14,REEP5 (UniProt Q00765),0.354
15,BLZF1 (UniProt Q9H2G9),-0.103
16,NPEPL1 (UniProt Q8NDH3),1.2
17,PREX1 (UniProt Q8TCU6),-0.0577
18,FBXO21 (UniProt O94952),0.0266
19,MRPL42 (UniProt Q9Y6G3),-1.61
20,FEN1 (UniProt P39748),0.572
21,SAMD9 (UniProt Q5K651),-0.13
22,AP1G1 (UniProt O43747),0.813
23,PAFAH1B1 (UniProt P43034),-0.241
